Data reported in patent US11802120B2, “Fused cyclic urea derivatives as CRHR2 antagonist” (RaQualia Pharma Inc., priority 2018, dated 2023).

biological target: T1, human CRHR2-alpha (Homo sapiens, UniProt Q13324); test: cAMP functional assay for human CRHR2 (LANCE Ultra cAMP, TR-FRET); type: cell-based; settings: CHO-K1 cells expressing human CRHR2-alpha, agonist human urocortin2 at EC80, cAMP; read-out: IC50 against CRHR2
T1 sequence (Q13324 1-411): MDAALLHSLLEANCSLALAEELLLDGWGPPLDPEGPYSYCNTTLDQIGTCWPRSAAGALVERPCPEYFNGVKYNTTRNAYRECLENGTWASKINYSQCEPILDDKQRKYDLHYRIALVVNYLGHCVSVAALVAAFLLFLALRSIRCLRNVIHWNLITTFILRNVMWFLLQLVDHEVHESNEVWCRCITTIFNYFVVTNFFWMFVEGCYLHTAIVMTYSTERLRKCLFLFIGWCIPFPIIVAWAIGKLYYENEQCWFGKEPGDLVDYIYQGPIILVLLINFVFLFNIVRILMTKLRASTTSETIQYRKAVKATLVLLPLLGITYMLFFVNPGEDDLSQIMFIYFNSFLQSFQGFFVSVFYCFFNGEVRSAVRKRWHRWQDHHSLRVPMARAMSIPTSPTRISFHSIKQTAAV
Method in brief: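 IC50 values derive from percent inhibition of EC80 agonist-stimulated cAMP in CHO-K1 transfectants, with 0.5 mM IBMX present; the CRHR2 line was stimulated by human urocortin2 and the CRHR1 line by CRF.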

Compound	IC50 [nM]
O=C(N[C@H]1CC[C@H](Cn2c(=O)n(-c3cncc(-n4cccn4)c3)c3ccccc32)CC1)c1cc(Cl)cnc1C(F)F [Example 703, N-((1r,4r)-4-((3-(5-(1H-pyrazol-1-yl)pyridin-3-yl)-2-oxo-2,3-dihydro-1H-benzo [d]imidazol-1-yl)methyl)cyclohexyl)-5-chloro-2-(difluoromethyl)nicotinamide]	< 300
CNC(=O)c1ccc(-n2c(=O)n(C[C@H]3CC[C@H](NC(=O)c4cc(Cl)cnc4C(F)F)CC3)c3ccccc32)cn1 [Example 325, 5-(3-(((1r,4r)-4-(5-chloro-2-(difluoromethyl)nicotina-mido)cyclohexyl)methyl)-2-oxo-2,3-dihydro-1H-benzo [d]imidazol-1-yl)-N-methylpicolinamide]	< 300
O=C(N[C@H]1CC[C@H](Cn2c(=O)n(-c3ccc(OCCO)nc3)c3ccccc32)CC1)c1cc(Cl)cnc1C(F)F [Example 365, 5-chloro-2-(difluoromethyl)-N-((1r,4r)-4-((3-(6-(2-hydroxyethoxy)pyridin-3-yl)-2-oxo-2,3-dihydro-1H-benzo[d]imidazol-1-yl)methyl)cyclohexyl)nicotinamide]	< 300
CNC(=O)COc1ccc(-n2c(=O)n(C[C@H]3CC[C@H](NC(=O)c4cc(Cl)cnc4C(F)F)CC3)c3ccccc32)cn1 [Example 500, 5-chloro-2-(difluoromethyl)-N-((1r,4r)-4-((3-(6-(2-(methylamino)-2-oxoethoxy)pyridin-3-yl)-2-oxo-2,3-dihydro-1H-benzo[d]imidazol-1-yl)methyl)cyclohexyl)nicotinamide]	< 300
N#Cc1ccncc1-n1c(=O)n(C[C@H]2CC[C@H](NC(=O)c3cc(Cl)cnc3C(F)(F)F)CC2)c2ccccc21 [Example 311, 5-chloro-N-((1r,4r)-4-((3-(4-cyanopyridin-3-yl)-2-oxo-2,3-dihydro-1H-benzo[d]imidazol-1-yl)methyl)cyclo-hexyl)-2-(trifluoromethyl) nicotinamide]	< 300
O=C(N[C@H]1CC[C@H](Cn2c(=O)n(-c3ccc4nccnc4c3)c3ccccc32)CC1)c1cc(Cl)cnc1C(F)(F)F [Example 407, 5-chloro-N-((1r,4r)-4-((2-oxo-3-(quinoxalin-6-yl)-2,3-dihydro-1H-benzo[d]imidazol-1-yl)methyl)cyclohexyl)-2-(trifluoromethyl)nicotinamide]	< 300
CC(=O)N1CCc2cc(-n3c(=O)n(C[C@H]4CC[C@H](NC(=O)c5cc(Cl)cnc5C)CC4)c4ccccc43)ccc2C1 [Example 218, N-((1r,4r)-4-((3-(2-acetyl-1,2,3,4-tetrahydroisoquinolin-6-yl)-2-oxo-2,3-dihydro-1H-benzo[d]imidazol-1-yl)methyl)cyclohexyl)-5-chloro-2-methylnicotinamide]	< 300
Cc1ncc(Cl)cc1C(=O)N[C@H]1CC[C@H](Cn2c(=O)n(-c3ccc4cncnc4c3)c3ccccc32)CC1 [Example 443, 5-chloro-2-methyl-N-((1r,4r)-4-((2-oxo-3-(quinazolin-7-yl)-2,3-dihydro-1H-benzo[d]imidazol-1-yl)methyl)cyclo-hexyl)nicotinamide]	< 300
Cc1ccc(-n2c(=O)n(C[C@H]3CC[C@H](NC(=O)c4cc(Cl)cnc4C)CC3)c3ccc(F)cc32)cn1 [Example 122, 5-chloro-N-((1r,4r)-4-((5-fluoro-3-(6-methylpyridin-3-yl)-2-oxo-2,3-dihydro-1H-benzo[d]imidazol-1-yl)methyl)cyclo-hexyl)-2-methylnicotinamide]	< 300

Next, values leading:

IC50 [nM]	Compound
< 300	Cc1ncc(Cl)cc1C(=O)N[C@H]1CC[C@H](Cn2c(=O)n(-c3cnc(N(C)C)cn3)c3ccccc32)CC1 [Example 116, 5-chloro-N-((1r,4r)-4-((3-(5-(dimethylamino)pyrazin-2-yl)-2-oxo-2,3-dihydro-1H-benzo[d]imidazol-1-yl)methyl)cyclo-hexyl)-2-methylnicotinamide]
< 300	COc1ccc(-n2c(=O)n(C[C@H]3CC[C@H](NC(=O)c4cc(Cl)cnc4Cl)CC3)c3ccccc32)cn1 [Example 237, 2,5-dichloro-N-((1r,4r)-4-((3-(6-methoxypyridin-3-yl)-2-oxo-2,3-dihydro-1H-benzo[d]imidazol-1-yl)methyl)cyclo-hexyl)nicotinamide]
< 300	COc1ccc(-n2c(=O)n(C[C@H]3CC[C@H](NC(=O)c4cc(Cl)cnc4C(F)F)CC3)c3cnccc32)cc1F [Example 724, 5-chloro-2-(difluoromethyl)-N-((1r,4r)-4-((1-(3-fluoro-4-methoxyphenyl)-2-oxo-1H-imidazo[4,5-c]pyridin-3(2H)-yl)methyl)cyclohexyl) nicotinamide]
< 300	Cc1ncc(Cl)cc1C(=O)N[C@H]1CC[C@H](Cn2c(=O)n(-c3ccc4nccnc4c3)c3ccccc32)CC1 [Example 165, 5-chloro-2-methyl-N-((1r,4r)-4-((2-oxo-3-(quinoxalin-6-yl)-2,3-dihydro-1H-benzo[d]imidazol-1-yl)methyl)cyclo-hexyl)nicotinamide]
< 300	CNC(=O)c1ncc(-n2c(=O)n(C[C@H]3CC[C@H](NC(=O)c4cc(Cl)cnc4C(F)F)CC3)c3ccccc32)cc1Cl [Example 555, 3-chloro-5-(3-(((1r,4r)-4-(5-chloro-2-(difluoromethyl)nicotinamido)cyclohexyl)methyl)-2-oxo-2,3-dihydro-1H-benzo[d]imidazol-1-yl)-N-methylpicolinamide]
< 300	CNc1cc(C)c(-n2c(=O)n(C[C@H]3CC[C@H](NC(=O)c4cc(Cl)cnc4C(F)F)CC3)c3ccccc32)cn1 [Example 465, 5-chloro-2-(difluoromethyl)-N-((1r,4r)-4-((3-(4-methyl-6-(methylamino)pyridin-3-yl)-2-oxo-2,3-dihydro-1H-benzo[d]imidazol-1-yl)methyl)cyclohexyl)nicotinamide]
< 300	O=C(N[C@H]1CC[C@H](Cn2c(=O)n(-c3cccc(-c4nnco4)c3)c3ccccc32)CC1)c1cc(Cl)cnc1C(F)F [Example 748, N-((1r,4r)-4-((3-(3-(1,3,4-oxadiazol-2-yl)phenyl)-2-oxo-2,3-dihydro-1H-benzo [d]imidazol-1-yl)methyl)cyclohexyl)-5-chloro-2-(difluoromethyl)nicotinamide]
< 300	COc1ccc(-n2c(=O)n(C[C@H]3CC[C@H](NC(=O)c4cc(Cl)cnc4C)CC3)c3ccccc32)cc1OC [Example 44, 5-chloro-N-((1r,4r)-4-((3-(3,4-dimethoxyphenyl)-2-oxo-2,3-dihydro-1H-benzo[d]imidazol-1-yl)methyl)cyclohexyl)-2-methylnicotinamide]
< 300	Cc1ncc(Cl)cc1C(=O)N[C@H]1CC[C@H](Cn2c(=O)n(-c3ccnc(N4CCN(C)C4=O)c3)c3ccccc32)CC1 [Example 690, 5-chloro-2-methyl-N-((1r,4r)-4-((3-(2-(3-methyl-2-oxoimi-dazolidin-1-yl)pyridin-4-yl)-2-oxo-2,3-dihydro-1H-benzo [d]imidazol-1-yl)methyl)cyclo-hexyl)nicotinamide]
< 300	Cc1ncc(Cl)cc1C(=O)N[C@H]1CC[C@H](Cn2c(=O)n(-c3cnc(OCCO)c(F)c3)c3ccccc32)CC1 [Example 553, 5-chloro-N-((1r,4r)-4-((3-(5-fluoro-6-(2-hydroxyethoxy)pyridin-3-yl)-2-oxo-2,3-dihydro-1H-benzo[d]imidazol-1-yl)methyl)cyclohexyl)-2-methylnicotinamide]
